Test results published in patent US20070208074A1, “Methods and compositions for treating and preventing tumors” (priority 2006, published 2007).

How the values were obtained:
U87-S3C cells = experiment: Cell spreading assay on myelin; format: cell-based; conditions: recombinant human IL-8 50 ng/ml vs untreated U87-S3C cells on myelin; n=3, p<0.0005
Protocol: FIG. 4I is a graph quantifying the level of normalized cell spreading. IL-8 addition rescues STAT3 suppression of glioma cell spreading on myelin.
1×10^4 cells were seeded onto glass coverslips pre-coated with polyornithine ([…]) and additionally coated with PBS or 20 μg/ml myelin. Where indicated recombinant human IL-8 (R&D) was added at a concentration of 50 ng/ml. Cells were incubated at 37° C. for 1 hour to attach and then fixed with 4% paraformaldehyde for 20 minutes at RT. Coverslips were stained with phallotoxin for 20 minutes according to the manufacturer's directions (Molecular probes). Nuclei were counterstained with 0.2 μg/ml Hoechst (Sigma). Spread versus unspread cells were counted blind, and a percentage of spread cells over the total number of cells calculated. Pictures were taken at 60× using a Nikon inverted microscope.

[1] = system: control neuroblastoma cell line SK-N-MC; experiment: LIF-induced STAT3 tyrosine phosphorylation, immunoblot; format: cell-based; conditions: serum starved 24 hours, 10 ng/ml LIF for 15 minutes
[2] = system: PTEN-deficient glioma cells (U87, A172, and U138); experiment: as above; format: cell-based, human; conditions: serum starved 24 hours, 10 ng/ml LIF for 15 minutes
Protocol: (§1) FIG. 2A is a series of immunoblots showing the levels of PYS3 and STAT3 in glioma cells that harbor PTEN mutations (U87, A172, and U138) or that express wild type PTEN (SF188 and LN229) with the STAT3 and PYS3 antibodies. Cells were serum starved for 24 hours and then treated with 100 ng/ml CNTF (C) or 10 ng/ml LIF (L) for 15 minutes.
(§2) The inhibition of the STAT3 signaling pathway was also evident in human glioma cell lines that harbor PTEN mutations.

[3] = system: wild type PTEN-expressing glioma cells (SF188 and LN229); experiment: as above; format: cell-based, human; conditions: serum starved 24 hours, 10 ng/ml LIF for 15 minutes
Protocol: as §1, §2

SF188 cells = experiment: Growth curve / population growth with LIF; format: cell-based, human
Protocol: (§3) FIG. 2B is a series of graphs showing growth curves of PTEN-mutant glioma cell lines (U87 and A172) and PTEN-expressing (SF188) glioma cells lines that were treated with LIF (10 ng/ml daily) or left untreated.
FIG. 2C is a bar graph showing the population growth of SF188 cells infected with a retrovirus containing an IRES-GFP cassette alone or that also encodes wild type STAT3 or a dominant negative STAT3 (S3D).

A172 cells = experiment: Growth curve with LIF; format: cell-based, human; conditions: LIF 10 ng/ml daily; PTEN-deficient cell line
Protocol: as §3

U87 cells = experiment: Growth curve with LIF; format: cell-based, human; conditions: LIF 10 ng/ml daily; PTEN-deficient cell line
Protocol: as §3

LN229 cells = experiment: Population growth with LIF after lentiviral infection; format: cell-based, human; conditions: LIF 10 ng/ml daily; control lentivirus-infected LN229; n=3, p<0.05
Excerpt: FIG. 2D is a pair of immmunoblots showing STAT3 and actin levels in 293T cells infected with either control lentivirus or lentivirus encoding one of two small interfering hairpin RNAs directed at STAT3 and selected with puromycin (left panel). […] The right panel is a graph showing population growth of LN229 cells infected with control lentivirus or lentivirus encoding stat3i1 or stat3i2 and selected with puromycin.
Recombinant retroviruses were made by transfecting 293T cells with pMD.MLV gag.pol, pHDM.G (VSVG pseudotype), and the transfer plasmid (i.e. pBABE). Cells were infected with equal amounts of retroviruses in the presence of 8 μg/ml polybrene (Sigma). A population of infected cells for each construct was collected by sorting cells for GFP expression. PTEN−/− astrocytes were infected with pBABE or pBABE/S3C retroviruses and infected cells were selected with puromycin (4 μg/ml). PTEN flox/flox astrocytes were infected with MyrAkt and infected cells were selected with 250 μg/ml hygromycin (Invitrogen). Cloning of recombinant lentiviruses coding for a short hairpin RNA directed against STAT3 or human IL-8 was carried out using the pLL3.7 vector. […]

rat neural stem cells = experiment: BrdU incorporation with LIF; format: cell-based; conditions: LIF 10 ng/ml, 48 hrs; vector-infected cells vs no treatment; n=3, p<0.05
Protocol: FIG. 2E (right panel) is a bar graph showing BrdU incorporation in rat neural stem cells treated with LIF (10 ng/ml, 48 hrs) following infection with lentivirus and selection with puromycin.

Row | Substance | cell spreading on myelin (U87-S3C cells) | STAT3 tyrosine phosphorylation [1] | STAT3 tyrosine phosphorylation [2] | STAT3 tyrosine phosphorylation [3] | cell population growth (SF188 cells; LIF 10 ng/ml daily vs untreated, n=3, p<0.05) | population growth (SF188 cells; LIF 10 ng/ml daily, SF188 infected with control-vector or wild type STAT3 retrovirus, n=3, p<0.01) | proliferation (A172 cells) | proliferation (U87 cells) | population growth (LN229 cells) | BrdU incorporation (rat neural stem cells)
1 | IL-8: recombinant human IL-8 (R&D) added at 50 ng/ml | significantly more U87-S3C cells spread on myelin | – | – | – | – | – | – | – | – | –
2 | LIF: cytokine ligand of leukemia inhibitory factor receptorβ (LIFRβ), used at 10 ng/ml | – | robustly induced STAT3 tyrosine phosphorylation | failed to effectively induce the STAT3 phosphorylation | robustly induced STAT3 tyrosine phosphorylation | significantly reduced | significant reduction in population growth | little effect on the proliferation | little effect on the proliferation | significant reduction in growth | significantly less BrdU incorporation
